# Test system: TGF-β activation
# Assay: Inventors' additional tests of TGF-β activation with synthetic KRFK and LSKL peptides
# Excerpt: Moreover, the group of Murphy-Ullrich at the University of Alabama, U.S.A. investigated the adherent-type TGF-β activation reaction by a glycoprotein, thrombospondin 1, and reported that TGF-β is activated by binding of KRFK sequence corresponding to amino acid numbers 412-415 of thrombospondin 1 to LSKL sequence corresponding to amino acid numbers 54-57 of LAP, and that the synthetic KRFK peptide activates TGF-β, whereas the synthetic LSKL peptide inhibits the TGF-β activation reaction (Schultz-Cherry et al., J. Biol. Chem. 270: 7304-7310, 1995; Crawford et al., Cell 93: 1159-1170, 1998; Ribeiro et al., J. Biol. Chem. 274: 13586-13593, 1999; Murphy-Ullrich and Poczatek Cytokine & Growth Factor Reviews 11: 59-69, 2000). The LSKL sequence derived from amino acid numbers 54-57 of the aforementioned LAP overlaps with the plasmin cleavage site K56-L57 identified by the present inventors. By binding to and cutting this portion, respectively, thrombospondin 1 and proteases may inhibit a noncovalent bond between this portion and active TGF-β molecule, resulting in release of the active TGF-β molecule from a latent complex (namely the TGF-β activation reaction). […] Murphy-Ullrich et al. indicated an involvement of a thrombospondin 1-dependent adherent-type TGF-β activation reaction in the pathogenesis of lung or pancreatic diseases, but not in the pathogenesis of liver diseases.
substance,measurement,value
LSKL [LSKL peptide],inhibition of TGF-β activation,could not reproduce
